Where a name gives a salt, the structure may show the parent alone.
Biological target: T1, Rat brain protein farnesyltransferase (Rattus norvegicus, UniProt Q02293+Q04631)
T1 construct: Rat brain protein farnesyltransferase activity is measured; from tissue; host or cells: rat brain
Assay: % inhibition of farnesylation, scintillation proximity assay with biotin-K Ras B fragment
Assay type: biochemical
Conditions: Table 2; 1 × 10^-6 M
Summary of the method: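 Rat brain enzyme, purified through three steps, in a scintillation proximity assay kit with biotin-K Ras B fragment substrate at 0.1 mM final. Value is % inhibition of farnesylation.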

T1 sequence (Q02293 whole entry, one chain of several): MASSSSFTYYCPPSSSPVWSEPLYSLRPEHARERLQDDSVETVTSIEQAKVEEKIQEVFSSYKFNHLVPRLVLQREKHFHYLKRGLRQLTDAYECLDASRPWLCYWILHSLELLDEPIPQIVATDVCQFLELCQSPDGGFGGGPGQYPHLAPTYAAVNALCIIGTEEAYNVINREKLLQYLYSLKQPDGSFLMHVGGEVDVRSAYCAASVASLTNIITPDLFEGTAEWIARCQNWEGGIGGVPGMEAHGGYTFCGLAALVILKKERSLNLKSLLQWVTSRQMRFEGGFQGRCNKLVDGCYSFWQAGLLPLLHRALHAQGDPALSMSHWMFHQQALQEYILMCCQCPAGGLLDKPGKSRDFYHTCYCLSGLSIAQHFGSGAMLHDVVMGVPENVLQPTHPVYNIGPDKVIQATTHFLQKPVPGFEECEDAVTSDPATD

% inhibition at 1 × 10^-6 M [%]	Compound
92	CSCC[C@H](NC(=O)c1ccc(CN(Cc2ccco2)C(C)C)cc1-c1ccccc1C)C(=O)O [Example 831]
80	CSCC[C@H](NC(=O)c1ccc(CN(Cc2ccoc2)C(C)C)cc1-c1ccccc1C)C(=O)O [Example 832]
96	CSCC[C@H](NC(=O)c1ccc(CN(CCc2ccccc2)C(C)C)cc1-c1ccccc1C)C(=O)O [Example 835]
92	CSCC[C@H](NC(=O)c1ccc(CN(Cc2ccccc2)c2ccccc2C(C)=O)cc1-c1ccccc1C)C(=O)O [Example 844]
85	CSCC[C@H](NC(=O)c1ccc(CN(Cc2ccccc2)c2ccccc2Cl)cc1-c1ccccc1C)C(=O)O [Example 846]

More lines, now with the values behind:

Compound	% inhibition at 1 × 10^-6 M [%]
CSCC[C@H](NC(=O)c1ccc(CN2CCC[C@H]2COCc2ccccc2)cc1-c1ccccc1C)C(=O)O [Example 824]	90
CSCC[C@H](NC(=O)c1ccc(CN(Cc2ccccc2)Cc2ccccc2)cc1-c1ccccc1)C(=O)O [Example 834]	55
CSCC[C@H](NC(=O)c1ccc(CN(Cc2ccccc2)c2ccccc2SC)cc1-c1ccccc1C)C(=O)[O-].[Li+] [Example 850]	90

Same assay, conditions: Table 3; 1 × 10^-7 M

% inhibition at 1 × 10^-7 M [%]	Compound
63	COc1ccccc1N(Cc1ccccc1)Cc1ccc(C(=O)N[C@@H](CCSC)C(=O)O)c(-c2ccccc2C)c1 [Example 839]
92	CSCC[C@H](NC(=O)c1ccc(CCc2ccc(Oc3ccccc3N)cc2)cc1-c1ccccc1C)C(=O)O [Example 857]

More lines, now with the values behind:

Compound	% inhibition at 1 × 10^-7 M [%]
CSCC[C@H](NC(=O)c1ccc(CN(Cc2ccccc2)c2ccccc2[N+](=O)[O-])cc1-c1ccccc1C)C(=O)[O-].[Li+] [Example 849]	66
CSCC[C@H](NC(=O)c1ccc(/C=C/c2ccc(Oc3ccccc3Cl)cc2)cc1-c1ccccc1C)C(=O)O [Example 854]	78
CSCC[C@H](NC(=O)c1ccc(CCc2ccc(Oc3ccccc3Cl)cc2)cc1-c1ccccc1C)C(=O)O [Example 855]	92
CSCC[C@H](NC(=O)c1ccc(/C=C/c2ccc(Oc3ccccc3[N+](=O)[O-])cc2)cc1-c1ccccc1C)C(=O)O [Example 856]	97
CSCC[C@H](NC(=O)c1ccc(CCc2ccc(Oc3cccc(Cl)c3)cc2)cc1-c1ccccc1C)C(=O)O [Example 859]	86

Same assay, conditions: Table 4; 1 × 10^-8 M

% inhibition at 1 × 10^-8 M [%]	Compound
95	CSCC[C@H](NC(=O)c1ccc(CN(Cc2ccccc2)c2cncnc2)cc1-c1ccccc1C)C(=O)O [Example 836]
73	COc1ccc(N(Cc2ccccc2)Cc2ccc(C(=O)N[C@@H](CCSC)C(=O)O)c(-c3ccccc3C)c2)cc1 [Example 840]
96	CSCC[C@H](NC(=O)c1ccc(CN(Cc2ccccc2)c2ccc([N+](=O)[O-])cc2)cc1-c1ccccc1C)C(=O)O [Example 843]
85	CSCC[C@H](NC(=O)c1ccc(CN(Cc2ccccc2)c2cccc(C(C)=O)c2)cc1-c1ccccc1C)C(=O)O [Example 845]
85	CSCC[C@H](NC(=O)c1ccc(CN(Cc2ccccc2)c2cccc(Cl)c2)cc1-c1ccccc1C)C(=O)O [Example 847]
87	CSCC[C@H](NC(=O)c1ccc(CN(Cc2ccccc2)c2ccc(Cl)cc2)cc1-c1ccccc1C)C(=O)O [Example 848]
85	CSCC[C@H](NC(=O)c1ccc(CN(Cc2ccccc2)c2ccc(C(F)(F)F)cc2)cc1-c1ccccc1C)C(=O)O [Example 853]

Further lines, the molecule ahead of its results:

Compound	% inhibition at 1 × 10^-8 M [%]
CSCC[C@H](NC(=O)c1ccc(CN(Cc2ccc3c(c2)OCO3)c2cncnc2)cc1-c1ccccc1C)C(=O)O [Example 837]	91
CSCC[C@H](NC(=O)c1ccc(CN(Cc2ccc3c(c2)OCO3)c2cnccn2)cc1-c1ccccc1C)C(=O)O [Example 838]	92
CSCC[C@H](NC(=O)c1ccc(CN(Cc2ccccc2)c2cccc([N+](=O)[O-])c2)cc1-c1ccccc1C)C(=O)[O-].[Li+] [Example 842]	88
CSCC[C@H](NC(=O)c1ccc(CN(Cc2ccccc2)c2cccc(SC)c2)cc1-c1ccccc1C)C(=O)[O-].[Li+] [Example 851]	82
CSCC[C@H](NC(=O)c1ccc(CN(Cc2ccccc2)c2ccc(SC)cc2)cc1-c1ccccc1C)C(=O)[O-].[Li+] [Example 852]	79
CSCC[C@H](NC(=O)c1ccc(/C=C/c2ccc(Oc3cccc(Cl)c3)cc2)cc1-c1ccccc1C)C(=O)O [Example 858]	60

Same assay, conditions: read-out: % inhibition at 1 × 10^-7 M

Compound	inhibition at 0.1 µM [%]
CCCCC(OCc1ccc(C(=O)N[C@@H](CCSC)C(=O)O)c(-c2ccccc2C)c1)c1ccco1 (stereo partly shown) [Example 825, N-[4-(1-furan-2-ylpentyloxymethyl)-2-(2-methylphenyl)benzoyl]methionine lithium salt]	79

Same assay, conditions: read-out: % inhibition at 1 × 10^-7 M; Table 3; 1 × 10^-7 M

inhibition at 0.1 µM [%]	Compound
93	CSCC[C@H](NC(=O)c1ccc(COCC2CCC(c3ccc(Cl)cc3)O2)cc1-c1ccccc1C)C(=O)O (stereo partly drawn) [Example 822, N-[4-(5-syn(4chlorophenyl)tetrahydrofuran-2-ylmethoxymethyl)-2-(2-methylphenyl)benzoyl]methionine lithium salt]

Same assay, conditions: read-out: % inhibition at 1 × 10^-8 M

Compound	inhibition at 0.01 µM [%]
CSCC[C@H](NC(=O)c1ccc(COCc2ccc(-c3ccc(C(C)C)cc3)o2)cc1-c1ccccc1C)C(=O)O [Example 820, N-[4-(5-(4-isopropylphenyl)furan-2-ylmethoxymethyl)-2-(2-methylphenyl)benzoyl]methionine lithium salt]	66
CCCCC(OCc1ccc(C(=O)N[C@@H](CCSC)C(=O)O)c(-c2ccccc2C)c1)c1ccc(-c2ccc(Cl)cc2)o1 (stereo partly shown) [Example 826, N-[4-(1-(5-(4-chlorophenyl)furan-2-yl)pentyloxymethyl)-2-(2-methylphenyl)benzoyl]methionine lithium salt]	92
CSCC[C@H](NC(=O)c1ccc(COCc2occc2-c2ccc(Cl)cc2)cc1-c1ccccc1C)C(=O)O [Example 827, N-[4-(3-(4-chlorophenyl)furan-2-ylmethoxymethyl)-2-(2-methylphenyl)benzoyl]methionine lithium salt]	77
CSCC[C@H](NC(=O)c1ccc(COC(Cc2ccccc2)c2cncs2)cc1-c1ccccc1C)C(=O)O (stereo partly shown) [Example 828, N-[4-(1-thiazol-5-yl-2-phenylethoxymethyl)-2-(2-methylphenyl)benzoyl]methionine lithium salt]	87
CSCC[C@H](NC(=O)c1ccc(COCc2oc(-c3ccc(Cl)cc3)c(Cl)c2Cl)cc1-c1ccccc1C)C(=O)O [Example 829, N-[4-(3,4-dichloro-5-(4-chlorophenyl)furan-2-ylmethoxymethyl)-2-(2-methylphenyl)benzoyl]methionine lithium salt]	92

Same assay, conditions: read-out: % inhibition at 1 × 10^-8 M; Table 4; 1 × 10^-8 M

inhibition at 0.01 µM [%]	Compound
76	CSCC[C@H](NC(=O)c1ccc(COCc2ccc(-c3ccc(Cl)cc3)o2)cc1-c1ccccc1C)C(=O)NS(=O)(=O)c1ccccc1 [Example 819, N-[4-(5-(4-chlorophenyl)furan-2-ylmethoxymethyl)-2-(2-methylphenyl)benzoyl]methionine benzenesulfonimide]
75	CSCC[C@H](NC(=O)c1ccc(COCc2ccc(-c3ccc(N(C)C)cc3)o2)cc1-c1ccccc1C)C(=O)O [Example 821, N-[4-(5-(4-N,N-dimethylaminophenyl)furan-2-ylmethoxymethyl)-2-(2-methylphenyl)benzoyl]methionine lithium salt]

Source: US6204293A, “Inhibitors of protein isoprenyl transferases” (University of Pittsburgh, priority 1998, dated 2001)
